Test results taken from patent US8754054B2, “Antibacterial compounds, methods of making them, and uses thereof” (Albany Molecular Research, Inc., priority 2010, dated 2014).
Values after ≈ are worked out from the molar mass of the structure shown.

Each compound was assayed on MRSA 43300 (assay: Antibacterial activity, NCCLS dilution method (Table 9)). Conditions: MRSA 43300; dilution method; labels marked a tested as a mixture of diastereomers.
Type: cell-based, S. aureus
Source text: NCCLS standards for antimicrobial susceptibility testing using the dilution method were followed. See: Performance Standards for Antimicrobial Susceptibility Testing; Fourteenth Informational Supplement. NCCLS Document M100-S14 (ISBN 1-56238-516-X), 2004. NCCLS, 940 West Valley Road, Suite 1400, Wayne, Pa. 19087-1898 USA, 2004; Methods for Dilution Antimicrobial Susceptibility Tests for Bacteria that Grow Aerobically; Approved Standard—Sixth Edition. NCCLS document M7-A6 (IBSBN 1-56238-486-4), NCCLS, 940 West Valley Road, Suite 1400, Wayne, Pa. 19087-1898 USA, 2003, which are hereby incorporated by reference in their entirety.

| Compound | MRSA 43300 MIC [µg/mL] |
| --- | --- |
| (6R,6aS,14aR)-Methyl 1,6,8,12,14a-pentahydroxy-11-((2S,3R,4R,5R,6S)-4-hydroxy-3,5-dimethoxy-6-methyltetrahydro-2H-pyran-2-ylamino)-12-((5-(2-hydroxypropyl)furan-3-yl)methyl)-6a-methoxy-3-methyl-7,9,14-trioxo-5,6,6a,7,9,12,14,14a-octahydrobenzo[a]tetracene-2-carboxylate [Example 61] | 0.06 |

Same assay, conditions: Staphylococcus aureus, MRSA, MRSA 43300; dilution method; labels marked a tested as a mixture of diastereomers; read-out: MRSA 43300 MIC

| MIC [µg/mL] | Compound |
| --- | --- |
| 0.25 to 1 (≈ 0.304 to 1.22 µM) | COC(=O)c1c(C)cc2c(c1OCC(=O)N1CCCCC1)[C@]1(O)C(=O)c3cc4c(c(O)c3C(=O)[C@]1(OC)[C@H](O)C2)C(=O)C=C(N[C@H]1O[C@@H](C)[C@H](OC)[C@@H](O)[C@H]1OC)C4=O [Example 12, (6R,6aS,14aR)-Methyl 6,8,14a-trihydroxy-11-((2S,3R,4R,5R,6S)-4-hydroxy-3,5-dimethoxy-6-methyltetrahydro-2H-pyran-2-ylamino)-6a-methoxy-3-methyl-7,9,12,14-tetraoxo-1-(2-oxo-2-(piperidin-1-yl)ethoxy)-5,6,6a,7,9,12,14,14a-octahydrobenzo[a]tetracene-2-carboxylate] |
| 0.25 (≈ 0.323 µM) | CO[C@@H]1[C@@H](O)[C@@H](OC)C(NC2=CC(=O)c3c(cc4c(c3O)C(=O)[C@]3(OC)[C@H](O)Cc5cc(C)c(C(=O)OCc6ccccc6)c(O)c5[C@]3(O)C4=O)C2=O)O[C@H]1C (mixture of isomers) [Example 37, (6R,6aS,14aR)-Benzyl 1,6,8,14a-tetrahydroxy-11-((3R,4R,5R,6S)-4-hydroxy-3,5-dimethoxy-6-methyltetrahydro-2H-pyran-2-ylamino)-6a-methoxy-3-methyl-7,9,12,14-tetraoxo-5,6,6a,7,9,12,14,14a-octahydrobenzo[a]tetracene-2-carboxylate] |
| 4 (≈ 4.79 µM) | CO[C@@H]1[C@@H](O)[C@@H](OC)C(NC2=CC(=O)c3c(cc4c(c3O)C(=O)[C@]3(OC)[C@H](O)Cc5cc(C)c(C(=O)Nc6ccc(-c7ccccc7)cc6)c(O)c5[C@]3(O)C4=O)C2=O)O[C@H]1C (mixture of isomers) [Example 23, (6R,6aS,14aR)—N-(Biphenyl-4-yl)-1,6,8,14a-tetrahydroxy-11-((3R,4R,5R,6S)-4-hydroxy-3,5-dimethoxy-6-methyltetrahydro-2H-pyran-2-ylamino)-6a-methoxy-3-methyl-7,9,12,14-tetraoxo-5,6,6a,7,9,12,14,14a-octahydrobenzo[a]tetracene-2-carboxamide] |
| 0.12 to 0.5 (≈ 0.155 to 0.647 µM) | CO[C@@H]1[C@@H](O)[C@@H](OC)C(NC2=CC(=O)c3c(cc4c(c3O)C(=O)[C@]3(OC)[C@H](O)Cc5cc(C)c(C(=O)NCc6ccccc6)c(O)c5[C@]3(O)C4=O)C2=O)O[C@H]1C (mixture of isomers) [Example 30, (6R,6aS,14aR)—N-Benzyl-1,6,8,14a-tetrahydroxy-11-((3R,4R,5R,6S)-4-hydroxy-3,5-dimethoxy-6-methyltetrahydro-2H-pyran-2-ylamino)-6a-methoxy-3-methyl-7,9,12,14-tetraoxo-5,6,6a,7,9,12,14,14a-octahydrobenzo[a]tetracene-2-carboxamide] |
| 8 (≈ 10.3 µM) | COC(=O)c1c(C)cc2c(c1O)[C@]1(O)C(=O)c3cc4c(c(O)c3C(=O)[C@]1(OC)[C@H](O)C2)C(=O)C=C(N[C@H]1O[C@@H](C)[C@H](OC)[C@@H](O)[C@H]1OC)C4(O)c1ccccc1 (single isomer, unassigned) [Example 56] |
| 0.5 (≈ 0.623 µM) | COc1ccc(CNC(=O)c2c(C)cc3c(c2O)[C@]2(O)C(=O)c4cc5c(c(O)c4C(=O)[C@]2(OC)[C@H](O)C3)C(=O)C=C(N[C@H]2O[C@@H](C)[C@H](OC)[C@@H](O)[C@H]2OC)C5=O)cc1 [Example 28, (6R,6aS,14aR)-1,6,8,14a-Tetrahydroxy-11-((3R,4R,5R,6S)-4-hydroxy-3,5-dimethoxy-6-methyltetrahydro-2H-pyran-2-ylamino)-6a-methoxy-N-(4-methoxybenzyl)-3-methyl-7,9-12-14-tetraoxo-5,6,6a,7,9,12,14,14a-octahydrobenzo[a]tetracene-2-carboxamide] |

| Compound | MIC [µg/mL] |
| --- | --- |
| COC(=O)c1c(C)cc2c(c1OCC(N)=O)[C@]1(O)C(=O)c3cc4c(c(O)c3C(=O)[C@]1(OC)[C@H](O)C2)C(=O)C=C(NC1O[C@@H](C)[C@H](OC)[C@@H](O)[C@H]1OC)C4=O (stereo partly drawn) [Example 10, (6R,6aS,14aR)-Methyl 1-(2-amino-2-oxoethoxy)-6,8,14a-trihydroxy-11-((3R,4R,5R,6S)-4-hydroxy-3,5-dimethoxy-6-methyltetrahydro-2H-pyran-2-ylamino)-6a-methoxy-3-methyl-7,9,12,14-tetraoxo-5,6,6a,7,9,12,14,14a-octahydrobenzo[a]tetracene-2-carboxylate] | 32 (≈ 42.4 µM) |
| COC(=O)c1c(C)cc2c(c1O)[C@]1(O)C(=O)c3cc4c(c(O)c3C(=O)[C@]1(OC)[C@H](O)C2)C(=O)C=C(N[C@H]1O[C@@H](C)[C@H](OC)[C@@H](O)[C@H]1OC)C4=O [Example 2, (6R,6aS,14aR)-methyl 1,6,8,14a-tetrahydroxy-11-((2S,3R,4R,5R,6S)-4-hydroxy-3,5-dimethoxy-6-methyltetrahydro-2H-pyran-2-ylamino)-6a-methoxy-3-methyl-7,9,12,14-tetraoxo-5,6,6a,7,9,12,14,14a-octahydrobenzo[a]tetracene-2-carboxylate] | 0.008 (≈ 0.0115 µM) |
| COC(=O)c1c(C)cc2c(c1O)[C@]1(O)C(=O)c3cc4c(c(O)c3C(=O)[C@]1(OC)[C@H](O)C2)C(=O)C=C(N[C@H]1O[C@@H](C)[C@H](OC)C(=NO)[C@H]1OC)C4=O (single isomer, unassigned) [Example 49] | 0.06 (≈ 0.0844 µM) |
| CNC(=O)c1c(C)cc2c(c1O)[C@]1(O)C(=O)c3cc4c(c(O)c3C(=O)[C@]1(OC)[C@H](O)C2)C(=O)C=C(NC1O[C@@H](C)[C@H](OC)[C@@H](O)[C@H]1OC)C4=O (mixture of isomers) [Example 19, (6R,6aS,14aR)-1,6,8,14a-Tetrahydroxy-11-((3R,4R,5R,6S)-4-hydroxy-3,5-dimethoxy-6-methyltetrahydro-2H-pyran-2-ylamino)-6a-methoxy-N,3-dimethyl-7,9,12,14-tetraoxo-5,6,6a,7,9,12,14,14a-octahydrobenzo[a]tetracene-2-carboxamide] | 2 (≈ 2.87 µM) |
| CO[C@@H]1[C@@H](O)[C@@H](OC)C(NC2=CC(=O)c3c(cc4c(c3O)C(=O)[C@]3(OC)[C@H](O)Cc5cc(C)c(C(=O)N6CCCCC6)c(O)c5[C@]3(O)C4=O)C2=O)O[C@H]1C (mixture of isomers) [Example 21, (6R,6aS,14aR)-1,6,8,14a-Tetrahydroxy-11-((3R,4R,5R,6S)-4-hydroxy-3,5-dimethoxy-6-methyltetrahydro-2H-pyran-2-ylamino)-6a-methoxy-3-methyl-2-(piperidine-1-carbonyl)-6,6a-dihydrobenzo[a]tetracene-7,9,12,14(5H,14aH)-tetraone] | 1 (≈ 1.33 µM) |

Same assay, conditions: Staphylococcus aureus, MRSA, read-out: MRSA 43300 MIC

| Compound | MIC [µg/mL] |
| --- | --- |
| COC(=O)c1c(C)c(N)c2c(c1O)[C@]1(O)C(=O)c3cc4c(c(O)c3C(=O)[C@]1(OC)[C@H](O)C2)C(=O)C=C(N[C@H]1O[C@@H](C)[C@H](OC)[C@@H](O)[C@H]1OC)C4=O [Example 42, (6R,6aS,14aR)-Methyl 4-amino-1,6,8,14a-tetrahydroxy-11-((2S,3R,4R,5R,6S)-4-hydroxy-3,5-dimethoxy-6-methyltetrahydro-2H-pyran-2-ylamino)-6a-methoxy-3-methyl-7,9,12,14-tetraoxo-5,6,6a,7,9,12,14,14a-octahydrobenzo[a]tetracene-2-carboxylate 2,2,2-trifluoroacetate] | 2 to 4 (≈ 2.81 to 5.61 µM) |
